Results published in ChEMBL document CHEMBL4190333, “Cyclic Biphalin Analogues Incorporating a Xylene Bridge: Synthesis, Characterization, and Biological Profile” (ACS Med Chem Lett, 2017).
Calls of active or inactive are those of the source. No cut-off for these calls is given here. Starred links: 1 amine or outer side, 2 acyl side, 3 side chain; linkers in the order of their positions; H or OH if unused. Positions of bridges follow the written chain, without caps; N, C: chain ends. Non-standard residues stand in square brackets, D forms with d. Residues, ends and D or L forms follow the SMILES beside them. Chains are numbered I, II in the order given. NHNH = N(N[*:2])[*:1]

Experiments:
Mu-type opioid receptor [1] = biological target: Mu-type opioid receptor (Rattus norvegicus, UniProt P33535); assay: Displacement of [3H]DAMGO from MOR in Wistar rat whole brain membranes after 45 mins by liquid scintillation counting method; assay type: cell membranes, Membrane
[2] = biological target: Delta-type opioid receptor (Rattus norvegicus, UniProt P33533); assay: Displacement of [3H]lleDelt2 from DOR in Wistar rat whole brain membranes after 45 mins by liquid scintillation counting method; assay type: cell membranes, Membrane
Rattus norvegicus [3] = species: Rattus norvegicus; assay: Selectivity ratio of Ki for displacement of [3H]lleDelt2 from DOR in Wistar rat whole brain membranes to displacement of [3H]DAMGO from MOR in Wistar rat whole brain membranes; assay type: cell membranes
[4] = (§1) Agonist activity at heteromeric G-protein in Wistar rat whole brain membranes after 30 mins by [35S]GTPgammaS binding assay; assay type: cell membranes, Membrane
Rattus norvegicus [5] = species: Rattus norvegicus; assay: as §1; assay type: cell membranes; conditions: Membrane
Mus musculus [6] = assay: Antinociceptive activity in Harlan CD-1 mouse model of thermal-induced nociception assessed as increase in latency to tail withdrawal at 0.01 nmol, icv measured after 15 to 120 mins by tail flick test; assay type: functional, organism-based
Mus musculus [7] = species: Mus musculus; assay: Antinociceptive activity in Harlan CD-1 mouse model of thermal-induced nociception assessed as increase in latency to tail withdrawal at 0.01 nmol, i.t measured after 15 to 120 mins by tail flick test; assay type: functional, organism-based
Mus musculus [8] = assay: Analgesic activity in formalin-induced nociception Harlan CD-1 mouse model assessed as reduction in time spent in licking or biting formalin injected hind paw during neurogenic phase at 0.1 nmol, sc pretreated for 15 mins followed by formalin induction measured up to 10 mins; assay type: functional, organism-based
Mus musculus [9] = assay: Analgesic activity in formalin-induced nociception Harlan CD-1 mouse model assessed as reduction in time spent in licking or biting formalin injected hind paw during inflammatory phase at 0.1 nmol, sc pretreated for 15 mins followed by formalin induction measured after 15 to 40 mins; assay type: functional, organism-based
Mus musculus [10] = assay: Antinociceptive activity in Harlan CD-1 mouse model of thermal-induced nociception assessed as increase in latency to tail withdrawal at 0.01 nmol, icv measured after 45 to 90 mins by tail flick test; assay type: functional, organism-based
Mus musculus [11] = species: Mus musculus; assay: Antinociceptive activity in Harlan CD-1 mouse model of thermal-induced nociception assessed as increase in latency to tail withdrawal at 0.01 nmol, i.t measured after 45 to 120 mins by tail flick test; assay type: functional, organism-based
[12] = Half life in human plasma at 100 ug/ml by HPLC method; assay type: ADME, cell-free
Mu-type opioid receptor [13] = biological target: Mu-type opioid receptor (Homo sapiens, UniProt P35372); assay: Binding affinity to MOR (unknown origin)
Sequence of Mu-type opioid receptor (Homo sapiens, UniProt P35372) (P35372 whole entry): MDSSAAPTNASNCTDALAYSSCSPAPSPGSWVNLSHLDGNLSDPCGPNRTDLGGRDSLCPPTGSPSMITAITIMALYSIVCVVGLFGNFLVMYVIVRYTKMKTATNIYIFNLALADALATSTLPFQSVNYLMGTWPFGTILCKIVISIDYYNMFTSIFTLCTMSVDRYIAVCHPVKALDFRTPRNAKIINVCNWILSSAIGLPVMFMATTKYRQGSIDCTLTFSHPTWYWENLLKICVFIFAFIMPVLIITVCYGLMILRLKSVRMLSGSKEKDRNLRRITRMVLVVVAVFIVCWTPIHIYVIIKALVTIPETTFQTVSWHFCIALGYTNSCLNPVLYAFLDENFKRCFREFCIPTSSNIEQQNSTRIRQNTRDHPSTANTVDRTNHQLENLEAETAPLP

Sequence of Delta-type opioid receptor (P33533 whole entry): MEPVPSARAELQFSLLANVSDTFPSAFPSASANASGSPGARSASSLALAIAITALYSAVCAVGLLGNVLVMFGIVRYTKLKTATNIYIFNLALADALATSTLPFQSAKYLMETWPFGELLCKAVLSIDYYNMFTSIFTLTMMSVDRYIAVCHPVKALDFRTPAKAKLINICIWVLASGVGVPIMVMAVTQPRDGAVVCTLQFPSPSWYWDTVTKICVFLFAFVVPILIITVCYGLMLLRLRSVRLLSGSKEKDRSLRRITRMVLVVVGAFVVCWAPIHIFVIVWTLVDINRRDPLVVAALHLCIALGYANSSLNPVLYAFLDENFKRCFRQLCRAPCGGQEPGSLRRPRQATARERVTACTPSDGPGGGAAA
Sequence of Mu-type opioid receptor (Rattus norvegicus, UniProt P33535) (P33535 whole entry): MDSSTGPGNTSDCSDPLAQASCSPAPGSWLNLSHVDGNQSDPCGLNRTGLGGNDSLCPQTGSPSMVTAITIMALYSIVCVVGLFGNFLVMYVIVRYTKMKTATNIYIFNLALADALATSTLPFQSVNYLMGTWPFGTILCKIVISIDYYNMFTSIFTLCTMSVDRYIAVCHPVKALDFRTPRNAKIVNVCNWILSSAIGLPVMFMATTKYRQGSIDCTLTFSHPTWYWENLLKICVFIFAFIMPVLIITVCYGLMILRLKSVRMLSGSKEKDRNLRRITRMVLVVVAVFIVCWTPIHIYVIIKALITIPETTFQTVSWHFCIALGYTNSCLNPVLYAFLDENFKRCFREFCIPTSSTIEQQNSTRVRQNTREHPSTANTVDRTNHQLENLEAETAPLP

SMILES | Ki (Mu-type opioid receptor [1]) [nM] | Ki [2] [nM] | Ratio Ki (Rattus norvegicus [3]) | EC50 [4] [nM] | Emax (Rattus norvegicus [5]) [%] | Activity (Mus musculus [6]) | Activity (Mus musculus [7]) | Activity (Mus musculus [8]) | Activity (Mus musculus [9]) | Activity (Mus musculus [10]) | Activity (Mus musculus [11]) | half-life at 100 ug/ml [12] [h] | EC50 (Mu-type opioid receptor [13]) [nM]
N[C@@H](Cc1ccc(O)cc1)C(=O)N[C@@H]1CSSC[C@@H](NC(=O)[C@@H](N)Cc2ccc(O)cc2)C(=O)NCC(=O)N[C@@H](Cc2ccccc2)C(=O)NNC(=O)[C@H](Cc2ccccc2)NC(=O)CNC1=O (I: H-Y[dC]GF / II: H-Y[dC]GF; disulfide I:2-II:2; linker I:C-II:C via NHNH) | 6.06 | 5.25 | 0.9 | 508 | 146 | – | – | – | – | – | – | – | –
N[C@@H](Cc1ccc(O)cc1)C(=O)N[C@@H]1CSCc2cccc(c2)CSC[C@@H](NC(=O)[C@@H](N)Cc2ccc(O)cc2)C(=O)NCC(=O)N[C@@H](Cc2ccccc2)C(=O)NNC(=O)[C@H](Cc2ccccc2)NC(=O)CNC1=O | 1.73 | 3.81 | 2.2 | 213 | 160 | Active | Active | Active | Active | – | – | – | –
N[C@@H](Cc1ccc(O)cc1)C(=O)N[C@@H]1CSCc2ccc(cc2)CSC[C@@H](NC(=O)[C@@H](N)Cc2ccc(O)cc2)C(=O)NCC(=O)N[C@@H](Cc2ccccc2)C(=O)NNC(=O)[C@H](Cc2ccccc2)NC(=O)CNC1=O | 1.61 | 2.52 | 1.5 | 87.4 | 150 | Active | Active | Active | Active | – | – | – | –
N[C@@H](Cc1ccc(O)cc1)C(=O)N[C@@H]1CSCc2ccccc2CSC[C@@H](NC(=O)[C@@H](N)Cc2ccc(O)cc2)C(=O)NCC(=O)N[C@@H](Cc2ccccc2)C(=O)NNC(=O)[C@H](Cc2ccccc2)NC(=O)CNC1=O.O=C(O)C(F)(F)F.O=C(O)C(F)(F)F | 1.33 | 2.26 | 1.8 | 247 | 137 | – | – | Active | Active | Active | Active | 1.45 | –
C[C@@H](NC(=O)[C@@H](N)Cc1ccc(O)cc1)C(=O)NCC(=O)N[C@@H](Cc1ccccc1)C(=O)NNC(=O)[C@H](Cc1ccccc1)NC(=O)CNC(=O)[C@@H](C)NC(=O)[C@@H](N)Cc1ccc(O)cc1 [BIPHALIN] | 0.79 | 3.5 | – | 75.4 | 177 | – | – | Active | Active | – | – | 0.55 | 1 to 4
